Literature values as cited in US20200289553A1, “Compositions and Methods for the Treatment of Metabolic Conditions” (REVEN IP HOLDCo LLC, priority 2017, published 2020).

What was measured:
[1] = 241 osteoporotic women, 45 mg/day vitamin K2 and 150 mg elemental calcium, after two years
[2] = rats, 100 mg/kg body weight daily
[3] = rabbits

CC(C)=CCC/C(C)=C/CC/C(C)=C/CC/C(C)=C/CC1=C(C)C(=O)c2ccccc2C1=O [vitamin K2]
lumbar bone mineral density [1]: maintain lumbar bone mineral density | fracture incidence ([1]; 30% in the control group): 10% | calcium in kidneys and aorta induced by megadose of synthetic vitamin D [2]: inhibited the increase in calcium in both kidneys and aorta | atherosclerotic plaque progression ([3]; 1-10 mg/kg daily for 10 weeks): inhibited the atherosclerotic plaque progression in the aorta and pulmonary arteries | total cholesterol levels, lipid peroxidation, ester cholesterol deposition in the aorta and factor X activity in plasma ([3]; compared to the control group): seen to reduce
